This is an account of results in article PMC6824041, “gem-Difluorobisarylic derivatives: design, synthesis and anti-inflammatory effect” (BMC Chemistry, 2019).

As usually defined, the IC50 is the concentration at which inhibition is half-maximal. A low value points to inhibition by little substance.

The target in the test is T1, cyclooxygenase-1 (COX-1) (Homo sapiens, UniProt P23219).
T1 construct: gene PTGS1; human recombinant COX-1 stably overexpressed in HEK-293 cells
Put plainly: PGE2 production from added arachidonic acid in HEK-293 cells overexpressing human COX-1. The test is classed as cell-based.

T1 sequence (P23219 24-599): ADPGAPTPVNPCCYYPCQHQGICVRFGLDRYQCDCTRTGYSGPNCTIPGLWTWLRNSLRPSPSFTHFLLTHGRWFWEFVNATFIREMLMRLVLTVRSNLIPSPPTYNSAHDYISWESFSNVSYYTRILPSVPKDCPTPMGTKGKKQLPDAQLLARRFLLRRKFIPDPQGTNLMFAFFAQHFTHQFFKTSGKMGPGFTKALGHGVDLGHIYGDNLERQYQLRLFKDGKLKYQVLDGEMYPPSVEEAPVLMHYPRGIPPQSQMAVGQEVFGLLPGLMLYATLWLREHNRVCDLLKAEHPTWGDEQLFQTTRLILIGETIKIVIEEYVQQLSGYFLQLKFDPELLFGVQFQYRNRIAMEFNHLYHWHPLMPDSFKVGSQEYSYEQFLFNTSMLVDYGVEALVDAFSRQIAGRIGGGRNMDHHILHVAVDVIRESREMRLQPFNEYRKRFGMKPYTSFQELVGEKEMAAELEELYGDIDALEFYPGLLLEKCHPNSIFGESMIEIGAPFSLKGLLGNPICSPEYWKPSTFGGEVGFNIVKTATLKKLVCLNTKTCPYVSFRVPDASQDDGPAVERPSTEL

Turning to `Cc1cc(C(=O)O)c(C(F)(F)c2cccc(C(C)C)c2)cc1C` [A5, 2-(difluoro(3-isopropylphenyl)methyl)-4,5-dimethylbenzoic acid], it took 5.2 µM to reach half-maximal inhibition (IC50).
